For test [1], the target named is Mycobacterium thermoresistibile OtsA (Mycobacterium thermoresistibile (DSM 44167)). As to the kind of experiment: crystal structure; apo form in space group I4(1)22, ADP-G6P ternary complex in P6(2)22, one protomer per asymmetric unit each; sitting-drop vapor diffusion at 18°C.
The target is the same in test [2]. Put plainly: not stated; in solution; the paper does not tell by which method the tetramer was seen.
In test [3] the target is T1, M. thermoresistibile OtsA V363F (Mycolicibacterium thermoresistibile, UniProt G7CGT2, V363F).
T1 sequence (G7CGT2 1-486 V363F): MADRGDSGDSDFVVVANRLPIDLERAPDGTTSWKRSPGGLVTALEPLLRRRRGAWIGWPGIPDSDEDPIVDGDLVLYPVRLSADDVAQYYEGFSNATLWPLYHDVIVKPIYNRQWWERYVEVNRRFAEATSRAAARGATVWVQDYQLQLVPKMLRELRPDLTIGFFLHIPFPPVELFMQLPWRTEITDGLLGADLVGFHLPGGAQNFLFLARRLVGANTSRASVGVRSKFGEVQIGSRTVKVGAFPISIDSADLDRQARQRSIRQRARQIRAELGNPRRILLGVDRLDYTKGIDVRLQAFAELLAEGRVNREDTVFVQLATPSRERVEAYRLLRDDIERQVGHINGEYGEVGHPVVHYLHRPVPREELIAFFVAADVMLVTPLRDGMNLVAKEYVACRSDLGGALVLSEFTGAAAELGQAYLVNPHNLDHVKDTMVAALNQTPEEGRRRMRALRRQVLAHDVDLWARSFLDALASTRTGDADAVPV
Put plainly: OtsA kinetic parameters, continuous colorimetric coupled assay (V363F). The class given is biochemical, Mycobacterium thermoresistibile.

Test [4] addresses M. thermoresistibile OtsA wild type (Mycolicibacterium thermoresistibile, UniProt G7CGT2). As to the kind of experiment: OtsA kinetic parameters, continuous colorimetric coupled assay (wild type). The class given is biochemical, Mycobacterium thermoresistibile.
Test [5] addresses T2, MtrOtsA (Mycolicibacterium thermoresistibile, UniProt G7CGT2).
T2 sequence (G7CGT2 1-486): T1 sequence (G7CGT2 1-486 V363F)
The following applies: ITC, 25°C, 60 μM OtsA, 1 mM ligand. Background: In ITC the heat of successive injections is recorded.

In test [6] the target is T3, M. thermoresistibile OtsA L319I (Mycolicibacterium thermoresistibile, UniProt G7CGT2, L319I).
T3 sequence (G7CGT2 1-486 L319I): T1 sequence (G7CGT2 1-486 V363F)
As to the kind of experiment: OtsA kinetic parameters, continuous colorimetric coupled assay (L319I). The class given is biochemical, Mycobacterium thermoresistibile.

Test [7] has as its target T2, MtrOtsA. As to the kind of experiment: biochemical.
For test [8], the target named is T4, M. thermoresistibile OtsA L319I, V363F, E367L (Mycolicibacterium thermoresistibile, UniProt G7CGT2, E367L/L319I/V363F).
T4 sequence (G7CGT2 1-486 L319I/V363F/E367L): T1 sequence (G7CGT2 1-486 V363F)
Put plainly: OtsA kinetic parameters, continuous colorimetric coupled assay (L319I, V363F, E367L). The format is biochemical, Mycobacterium thermoresistibile. Conditions: triple mutant.

The record followed here is article PMC6879718, “Mycobacterial OtsA Structures Unveil Substrate Preference Mechanism and Allosteric Regulation by 2-Oxoglutarate and 2-Phosphoglycerate” (mBio, 2019).

Take “Mycobacterium thermoresistibile OtsA (enzyme)”: the stoichiometry N in test [1] and in test [2] was 4 in each case.
For `Nc1nc2c(ncn2[C@@H]2O[C@H](COP(=O)(O)OP(=O)(O)O[C@H]3O[C@H](CO)[C@@H](O)[C@H](O)[C@H]3O)[C@@H](O)[C@H]2O)c(=O)[nH]1` [GDP-glucose], in test [3], the “fold increase in Km^app over the wild type” value was ~2.5 fold. The “turnover, fold lower than ADP-glucose” value in test [4] came to 5 fold. The heat of binding result on MtrOtsA [5] is “no observable heat of binding”.
For the molecule `O=C[C@H](O)[C@@H](O)[C@H](O)[C@H](O)COP(=O)(O)O` [Glucose-6-phosphate, glucose-6-phosphate], the “use as acceptor substrate” value in test [4] (ADP-glucose as the donor substrate) is listed as “the only acceptor”.
For `Nc1ncnc2c1ncn2[C@@H]1O[C@H](COP(=O)(O)OP(=O)(O)O[C@H]2O[C@H](CO)[C@@H](O)[C@H](O)[C@H]2O)[C@@H](O)[C@H]1O` [ADP-glucose], the “fold increase in Km^app over the wild type” value in test [3] is recorded as ~2.5 fold. The “fold increase in Km^app compared to the wild type” value in test [6] was ~3 fold; in test [8], ~5 fold. Binding at MtrOtsA [7] was put at a Kd of 27.2 ± 2.66 µM.
